{"source": "patent US20240327790A1", "about": "“METHODS AND COMPOSITIONS RELATING TO 3-D CULTURES” (PRESIDENT AND FELLOWS OF HARVARD COLLEGE, priority 2021, published 2024)", "key": {"[1]": {"tested_on": "human skin model, primary human adult diabetic keratinocytes", "experiment": "Irritation test (MTT viability) on skin model with adult diabetic donor keratinocytes", "assay_type": "cell-based", "conditions": "2 mg/mL SDS in PBS, 50 μL on top of 14-day diabetic sample, 18 hours at 37° C., MTT 3 hours, absorbance 490 nm", "procedure": "(§1) One potential use-case for these skin models is as an irritation model for pharmaceuticals, cosmetics, or occupational health studies. To evaluate the use of these stamped models in irritation tests, a common test method^21 was adapted. Sodium dodecyl sulfate (SDS) was applied to the top of these samples after 14 days of culture and incubated at 37° C. for 18 hours. After, an MTT assay was used to measure the cell viability. […] If the SDS penetrates through the epidermal barrier, the sample will not be viable and give a low signal in the MTT assay. […] Moreover, the standard for this test method is that the normalized viability reaches 50% between 1-3 mg/mL of SDS added to the samples^21. The samples here met this standard, as the 3 mg/mL neonatal samples have absorbance values greater than 50% of the negative control, and the diabetic sample with 2 mg/mL SDS has absorbance value greater than 50% of the negative control.\n(§2) Irritation Test. After keratinocytes had grown for 14 days, 50 μL of SDS at a concentration between 1-3 mg/mL in PBS was applied to the top of each skin sample. 1×PBS was applied as a negative control. […] After the substrate was completely dissolved, 50 μL of isopropanol formazan solution was transferred from each well to a 48 well plate, which was measured on a plate reader using the absorbance setting at 490 nm."}, "[2]": {"tested_on": "human skin models, primary human neonatal keratinocytes", "experiment": "Irritation test (MTT viability) on skin models with neonatal keratinocytes", "assay_type": "cell-based", "conditions": "3 mg/mL SDS in PBS, 50 μL on top of 14-day neonatal samples, 18 hours at 37° C., MTT 3 hours, absorbance 490 nm", "procedure": "as §1, §2"}}}
{"smiles": "CCCCCCCCCCCCOS(=O)(=O)[O-].[Na+]", "note": "[SDS, Sodium dodecyl sulfate]", "values": [{"measurement": "absorbance value (MTT viability) relative to negative control", "setting": "[1]", "result": "greater than 50 % of the negative control"}, {"measurement": "absorbance value (MTT viability) relative to negative control", "setting": "[2]", "result": "greater than 50 % of the negative control"}]}
